Results from patent publication US20250109216A1, “COMPOSITIONS AND METHODS FOR CROSSLINKING FC RECEPTORS” (The University of North Carolina at Chapel Hill, priority 2016, published 2025).
“Also recorded” adds a separate entry of the source.

How the values were obtained:
Format in all cases: cell-based, mice
B6 MFs = experiment: Recycling of IgG-ICs in B6 MFs treated with concanamycin A
Description: BMMφs were incubated (37° C., 5% CO2) with 40 μL Alexa Fluor® 488-labeled IgG-ICs in R10 media (as above). To quantify surface bound ICs at 0 hours, phagocytic uptake was impaired by culturing with IgG-ICs on ice for 2 hours. This was sufficient to allow the ICs to bind to the surface of the cell but not be phagocytosed. For all other time points, cells were incubated (37° C., 5% CO2) for 2 hours, then media was replaced to remove all unbound ICs. At indicated time points, cells were blocked in 2.4G2 for 30 min on ice in FACS media, washed, and split into 2 samples. One sample was incubated with an anti-Alexa Fluor® 488 antibody (quenches Alexa Fluor® 488 fluorescence), while the other sample was left in FACS media for 30 min on ice. Both samples were washed and fixed with 2% paraformaldehyde and incubated at 4° C. for 15 min. Surface bound IgG-ICs were calculated by subtracting the MFI of the quenched sample (intracellular IgG-ICs) from the MFI of the unquenched sample (total IgG-ICs). Values were normalized to B6 0 hr.

MRL/lpr BMMφ = experiment: mTOR localization by confocal imaging; settings: MRL/lpr BMMφs; Torin1 250 ng/mL for 2 hrs
Description: FIGS. 5A-5B. Localization of mTOR is defective in MRL/lpr BMMφ. (5A-5B). Unstimulated BMMφs cultured±Torin1 (250 ng/mL) for 2 hrs were examined for mTOR localization with CD11b by confocal imaging. Colocalization of mTOR to membrane (CD11b) is quantitated by mander's coefficient (5A). Total cellular mTOR levels were quantitated using ImageJ software (5B); 3 exp, 2-3 mice, 10-29 cells.
BMMφs were cultured with IgG-ICs in R10 media at 37° C. For measuring lipid rafts fluorescently labeled CTx was added to the culture 30 min prior to fixation. For the nuclear stain, hoechst was added 15 min prior to fixation. Mφs were fixed with 2% paraformaldehyde, then incubated at 4° C. for 15 min. Cells were blocked in 2.4G2 for 30 min at 4° C. in FACs media (PBS with 2% FBS, 0.02% NaN3), washed, and stained with primary and corresponding secondary antibodies in permeabilization buffer (PBS with 0.05% Saponin and 0.5% BSA) for 30 min at 4° C. Mφs were imaged in FACs media or resuspended in FluorSave™ and imaged. […] Data were analyzed using ImageJ. Colocalization was measured by calculating the Mander's coefficient (colocalized pixels/total fluorescent pixels) in all the cells imaged.

MRL/lpr Mφs [1] = experiment: Lysosome acidification after IgG-IC stimulation, ratiometric flow cytometry (relative phagosomal pH); settings: MRL/lpr Mφs/BMMFs stimulated with IgG-ICs; inhibitor added 2 hours prior and left on
Description: (§1) FIGS. 6A-6B. […] (6A). BMMφs from B6 and MRL/lpr mice were stimulated with IgG-ICs±TGX-221 (p110β), IC87114 (p110δ), or Torin1 (mTorC1/C2), and ratiometric flow cytometry was used to quantify the relative phagosomal pH. (6B). Cells were pre-treated with drugs (for 2 hr) and given IgG-ICs. IgG-ICs were removed after 2 hr. Cells remained on drug for the duration of the experiment. At 72 hrs, levels of surface bound IgG-ICs were analyzed by flow cytometry. All values are normalized to B6 untreated. n=3-7.
FIGS. 9A-9C. […] (9A). BMMφs (left panel) or splenic CD11b+ myeloid cells from B6 and MRL/lpr (right panel) were stimulated with IgG-ICs±SM-PEG (1, 2) (5 μg/mL) or control SM-PEG […] (5 μg/mL), and ratiometric flow cytometry was used to quantify the relative phagosomal pH. For internal control, cells were treated with concanamycin A (CMA) 2 hrs prior to IgG-ICs treatment (T0+CMA) to inhibit lysosomal pH change. 2-7 mice, >2 experiments. (9B). BMMφs (left panel) or splenic CD11b+ myeloid cells (right panel) were stimulated with SM-PEG (1, 2) or control SM-PEG (2, 1), or left unstimulated for 30 min or 60 min. At each time points, fixed cells were analyzed for surface bound nucleosomes. 2 mice, 2 experiments. (9C). BMMφs were stimulated with IgG-ICs±SM-PEG(1, 2) (5 μg/mL) for 1 hr, then pAKT (Ser/Thr) and pSHIP1 levels were assessed by flow cytometry. Phospho-proteins were normalized to isotype controls and the levels of total protein. 4 mice, 4 experiments.
The acidotropic dye LysoSensor™ Yellow/Blue can be used to quantify the pH or lysosomes using ratiometric imaging. […] For this adaptation, we loaded cells with an acidotropic dye and concurrently analyzed cells by microscopy (with pH standards) and flow cytometry. […]
Cells were incubated (37° C., 5% CO2) for 2 hours prior to the addition of 40 μL of IgG-ICs in R10 media (as above). […] At each time points, LysoSensor™ (2 mg/mL) was added and incubated for 15 min, then, analyzed by flow cytometry. […] Relative pH was quantified by ratioing the MFIs from the emission channels (450/20 nm, 585/42 nm) (normalized to concanamycin A control). […]

MRL/lpr Mφs [2] = experiment: Recycling of IgG-IC flow cytometry (surface bound IgG-ICs); settings: pre-treated with drugs 2 hr, surface IgG-ICs at 72 hrs
Description: as §1
Cells (0.25×10^6) were rested in R10 media for 1 hr at 37° C. prior to the addition of any reagents. IgG-ICs were added, incubated for given duration, and removed at each time points. […]
BMMφs were incubated (37° C., 5% CO2) with 40 μL Alexa Fluor® 488-labeled IgG-ICs in R10 media (as above). To quantify surface bound ICs at 0 hours, phagocytic uptake was impaired by culturing with IgG-ICs on ice for 2 hours. […] One sample was incubated with an anti-Alexa Fluor® 488 antibody (quenches Alexa Fluor® 488 fluorescence), while the other sample was left in FACS media for 30 min on ice. […] Surface bound IgG-ICs were calculated by subtracting the MFI of the quenched sample (intracellular IgG-ICs) from the MFI of the unquenched sample (total IgG-ICs). […]

SMILES	recycling of IgG-ICs (B6 MFs)	mTOR localization (MRL/lpr BMMφ)	lysosome acidification (MRL/lpr Mφs [1])	recycling of IgG-ICs (surface bound IgG-ICs) (MRL/lpr Mφs [2])
C/C=C/[C@H]1O[C@@](O)([C@@H](C)[C@H](O)[C@H](C)[C@H]2OC(=O)/C(OC)=C/C(C)=C/[C@@H](C)[C@@H](O)[C@@H](CC)[C@@H](O)[C@H](C)C/C(C)=C/C=C/[C@@H]2OC)C[C@@H](O[C@H]2C[C@@H](O)[C@H](OC(N)=O)[C@@H](C)O2)[C@@H]1C [concanamycin A]	promotes the recycling of IgG-ICs			
CCC(=O)N1CCN(c2ccc(-n3c(=O)ccc4cnc5ccc(-c6cnc7ccccc7c6)cc5c43)cc2C(F)(F)F)CC1 [Torin1]		restored mTOR to a cytosolic location	restored lysosome acidification to levels comparable to B6; also recorded: restored lysosomal acidification	
Cc1cc(C(C)Nc2ccccc2)c2nc(N3CCOCC3)cc(=O)n2c1 (stereo not shown) [TGX-221]			restored lysosome acidification to levels comparable to B6; also recorded: restored lysosomal acidification	prevented the recycling of IgG-ICs
Cc1ccccc1-n1c(Cn2cnc3c(N)ncnc32)nc2cccc(C)c2c1=O [IC87114]			restored lysosome acidification to levels comparable to B6; also recorded: restored lysosomal acidification	prevented the recycling of IgG-ICs
